≈ marks a conversion by molar mass, not a printed value. Like-named read-outs stand apart in the source and are kept apart here.
Experiments:
[1] = parameters: method as in PMID 25298799; conditions: HP-β-CDs; cited from earlier work
[2] = parameters: method as in PMID 25298799; conditions: RAMEB; cited from earlier work
[3] = parameters: method as in PMID 25298799; conditions: CRYSMEB; cited from earlier work
[4] = Aqueous solubility of linalool (S0) from phase solubility study, ultrasound equilibrium; format: physicochemical; conditions: for solubility at 60 min: read-out: Recovery aqueous solubility (S0)
Method: (§1) The study of linalool solubility in the presence of CDs was carried out according to the method described by Higuchi and Connors in 1965 with slight modifications. CDs were dissolved in buffered solutions at different pHs: 3.5, 5.5 (100 mmol L^−1 sodium acetate buffer), 6.5, 7.0 (100 mmol L^−1 sodium phosphate buffer) and 8.5 (100 mmol L^−1 sodium borate buffer). The α- and HP-β-CDs were prepared up to 100 mmol L^−1. However, β-CDs were prepared up to 15 mmol L^−1, since this is their limit of aqueous solubility.
(§2) A saturating concentration of linalool was added to each CDs solution and they were kept in an ultrasound bath for 60 min in the dark, at 25 °C, until equilibrium was reached. Subsequently, the solutions were filtered through a 0.45 µm nylon membrane filter (Chromafil, Macherey-Nagel, Düren, Germany) to remove excess linalool.
(§3) Once filtered, the solutions were diluted with ethanol until reach ethanol 80% (solution:ethanol, 20:80, v:v) to quantify by gas chromatography-mass spectrometry (GC-MS) the linalool concentration in each solution. Phase solubility diagrams were made in triplicate.
(§4) The quantification of linalool was carried out by using a Shimadzu GC-QP 2010 (Kyoto, Japan) gas chromatographer combined with a mass spectrometer. Helium was used as carrier gas, at a flow rate of 0.5 mL min^−1. A ω-WAX 250 fused silica supelco column (30 m × 0.25 mm × 0.25 µm thickness), was used. The temperature conditions were as follows: initial temperature at 70 °C, raised to 160 °C at 4 °C min^−1, raised to 280 °C at 30 °C min^−1, and maintained finally at 280 °C for 6 min. Injector temperature was 250 °C and injector mode was Split 1:20.
(§5) The peak area of each sample was used for linalool quantification (mmol L^−1), by interpolating in the calibration curve obtained using a standard of linalool, defined by equation: Area = […] [linalool (mmol L^−1)] and (R^2 = 0.9989) for linalool concentration from 0.0 to 0.5 mmol L^−1.

[5] = Phase solubility study of linalool complexation with α-CDs; format: physicochemical
Method: as §1, §2, §3, §4, §5
(§6) Kc between linalool and CDs was calculated from the slope of the phase solubility profile and the solubility of linalool in aqueous solution (S0) by using Equation (1):(1) Kc (Lmol^−1)=slope/S0(1−slope)
(§7) CE is the ratio between dissolved complex and free CDs concentration. […] was calculated by using Equation (2):(2) CE=[disolved−complex]/[CDs]=S0∗Kc
(§8) The molar ratio (MR) linalool:CDs, was calculated using CE values with Equation (3). (3) linalool:CDs=1:(1+1/CE)

[6] = Phase solubility study of linalool complexation with β-CDs; format: physicochemical
Method: as §1, §2, §3, §4, §5, §6, §7, §8

[7] = Phase solubility study of linalool complexation with HP-β-CDs (ultrasound); format: physicochemical
Method: as §1, §2, §3, §4, §5, §6, §7, §8

[8] = Phase solubility of linalool with HP-β-CDs by microwave irradiation (MWI); format: physicochemical; conditions: pH 7.0
Method: The encapsulation of linalool with HP-β-CDs by using MWI was carried out following the method described by Hernández-Sánchez et al. in 2017 [32]. Aqueous solutions of HP-β-CDs (100 mL, 0–100 mmol L^−1) were irradiated with microwave (LG Grill Wavedom, LG Electronics Las Rozas, Spain), at 700 W for 30 s, at 10 s intervals, until reaching a temperature of 70 °C in the solution. Later on, linalool was added to each aqueous solution, in a molar ratio of 1:1 and then, were irradiated again for 30 s at 10 s intervals, until reaching again 70 °C. Subsequently, the samples were shaken and kept for 12 h in dark sealed vials at 25 °C, before dividing them into two groups. After that, the first group, named 24 h MWI, was filtered using 0.45 µm nylon membrane filter (Chromafil, Macherey-Nagel). The second group, named 48 h MWI, were irradiated again, until reaching 70 °C, and maintain 12 h in the dark before they were filtered through a 0.45 µm nylon filter to remove linalool excess. Once filtered, both groups of samples were diluted with ethanol (20:80, v:v) until the GC-MS quantification of the linalool. All measurements were made in triplicate.
as §4, §5

[9] = parameters: method as in doi:10.1002/ffj.3197; conditions: JECFA (FAO/WHO); cited from earlier work
[10] = hydroxyl group at C3; no reference or method printed; cited from earlier work

O=C(O)/C=C/c1ccc(O)cc1 [coumaric acid]
Complexation efficiency (CE) [1]: 2.30
Complexation efficiency (CE) [2]: 2.57
Complexation efficiency (CE) [3]: 1.89

C=CCc1ccc(O)c(OC)c1 [eugenol]
Complexation efficiency (CE) [1]: 2.81

COc1cc(/C=C/C(=O)O)ccc1O [ferulic acid]
Complexation efficiency (CE) [2]: 1.79

C=CC(C)(O)CCC=C(C)C (stereo not drawn) [linalool, 3,7-dimethyl-1,6-octadien-3-ol]
solubility at 60 min ([4]; aqueous buffer, thermodynamic from solid, pH 6.5, 25 °C): 8.16 ± 0.11 mM (≈ 1260 µg/mL)
solubility at 60 min ([4]; aqueous buffer, thermodynamic from solid, pH 7.0, 25 °C): 7.37 mM (≈ 1140 µg/mL)
Recovery aqueous solubility (S0) ([4]; pH 3.5, 25 °C): 9.34 ± 0.20 mM
solubility at 60 min ([4]; pH 5.5, 25 °C): 9.05 ± 0.16 mM (≈ 1400 µg/mL)
Recovery aqueous solubility (S0) ([4]; pH 7.0, 25 °C): 7.37 ± 0.03 mM
solubility at 60 min ([4]; pH 8.5, 25 °C): 9.33 ± 0.13 mM (≈ 1440 µg/mL)
solubility at 60 min ([4]; sodium acetate buffer, pH 3.5, 25 °C): 9.34 mM (≈ 1440 µg/mL)
Complexation efficiency (CE) ([5]; pH 3.5): 0.159
Complexation constant (KC) ([5]; pH 3.5, 25 °C): 17 ± 6 L/mol
Complexation efficiency (CE) ([5]; pH 5.5): 0.226
Complexation constant (KC) ([5]; pH 5.5, 25 °C): 25 ± 4 L/mol
Complexation efficiency (CE) ([5]; pH 6.5): 0.987
Complexation constant (KC) ([5]; pH 6.5, 25 °C): 121 ± 9 L/mol
Complexation efficiency (CE) ([5]; pH 7.0): 1.090
Complexation constant (KC) ([5]; pH 7.0, 25 °C): 148 ± 12 L/mol
Complexation efficiency (CE) ([5]; pH 8.5): 0.979
Complexation constant (KC) ([5]; pH 8.5, 25 °C): 105 ± 8 L/mol
Complexation efficiency (CE) ([6]; pH 3.5): 0.261
Complexation constant (KC) ([6]; pH 3.5, 25 °C): 28 ± 4 L/mol
Complexation efficiency (CE) ([6]; pH 5.5): 0.670
Complexation constant (KC) ([6]; pH 5.5, 25 °C): 74 ± 5 L/mol
Complexation efficiency (CE) ([6]; pH 6.5): 0.743
Complexation constant (KC) ([6]; pH 6.5, 25 °C): 91 ± 4 L/mol
Complexation efficiency (CE) ([6]; pH 7.0): 1.776
Complexation constant (KC) ([6]; pH 7.0, 25 °C): 241 ± 26 L/mol
Complexation efficiency (CE) ([6]; pH 8.5): 0.149
Complexation constant (KC) ([6]; pH 8.5, 25 °C): 16 ± 5 L/mol
Linalool concentration solved ([7]; 100 mM HP-β-CDs, US, pH 7.0): 96.72 mM
Linalool concentration solved, US relative to MWI ([7]; 100 mM HP-β-CDs, pH 7.0): 7 fold
Increase in solubility of linalool ([7]; HP-β-CDs, US as energy source, volume 100 mL, pH 7.0): 13.1 fold
Complexation efficiency (CE) ([7]; HP-β-CDs, pH 3.5): 0.411
Complexation constant (KC) ([7]; HP-β-CDs, pH 3.5, 25 °C): 44 ± 6 L/mol
Complexation efficiency (CE) ([7]; HP-β-CDs, pH 5.5): 0.443
Complexation constant (KC) ([7]; HP-β-CDs, pH 5.5, 25 °C): 49 ± 7 L/mol
Complexation efficiency (CE) ([7]; HP-β-CDs, pH 6.5): 1.836
Complexation constant (KC) ([7]; HP-β-CDs, pH 6.5, 25 °C): 225 ± 14 L/mol
Complexation efficiency (CE) ([7]; HP-β-CDs, pH 7.0): 6.788
Complexation constant (KC) ([7]; HP-β-CDs, pH 7.0, 25 °C): 921 ± 21 L/mol
Complexation efficiency (CE) ([7]; HP-β-CDs, pH 8.5): 5.215
Complexation constant (KC) ([7]; HP-β-CDs, pH 8.5, 25 °C): 559 ± 17 L/mol
KC value for HP-β-CDs relative to that for β-CDs ([7]; neutral pH): 4 fold
Linalool concentration solved ([8]; 100 mM HP-β-CDs, MWI): 13.61 mM
Increase in solubility of linalool ([8]; HP-β-CDs, MWI as energy source, volume 100 mL): 18.2 fold
solubility thermodynamic ([8]; aqueous solution without HP-β-CDs (S0), 25 °C, water, thermodynamic from solid, MWI): 0.75 mM (≈ 116 µg/mL)
Allowable daily intake (ADI) [9]: 0–0.5 mg kg^−1 of body weight/day
pKa [10]: 18.46
